Experimental data from ChEMBL document CHEMBL5303573, “Mapping human microbiome drug metabolism by gut bacteria and their genes” (Nature, 2019).

Experiments:
[1] = The drug is tested on Eubacterium hallii strain: DSM3353 for biotransformation. The drug concentrations were measured before and after a 12-h incubation by liquid-chromatography-coupled mass spectrometry (LC–MS); settings: anaerobutyricum hallii, 2 µM
[2] = bacteroides fragilis, 12 h, 2 µM
Description: The drug is tested on Bacteroides fragilis strain: NCTC 9343 for biotransformation. The drug concentrations were measured before and after a 12-h incubation by liquid-chromatography-coupled mass spectrometry (LC–MS)

[3] = bifidobacterium adolescentis, 12 h, 2 µM
Description: The drug is tested on Bifidobacterium adolescentis strain: ATCC 15703 for biotransformation. The drug concentrations were measured before and after a 12-h incubation by liquid-chromatography-coupled mass spectrometry (LC–MS)

[4] = The drug is tested on Alistipes indistinctus strain: DSM22520 for biotransformation. The drug concentrations were measured before and after a 12-h incubation by liquid-chromatography-coupled mass spectrometry (LC–MS); settings: 2 µM
[5] = The drug is tested on Clostridium sporogenes strain: ATCC15579 for biotransformation. The drug concentrations were measured before and after a 12-h incubation by liquid-chromatography-coupled mass spectrometry (LC–MS); settings: 2 µM
[6] = The drug is tested on Ruminococcus gnavus strain: ATCC29149 for biotransformation. The drug concentrations were measured before and after a 12-h incubation by liquid-chromatography-coupled mass spectrometry (LC–MS); settings: mediterraneibacter gnavus, 2 µM
[7] = The drug is tested on Eubacterium ventriosum strain: ATCC27560 for biotransformation. The drug concentrations were measured before and after a 12-h incubation by liquid-chromatography-coupled mass spectrometry (LC–MS); assay type: ADME; parameters: dose 2 uM, timepoint 0 vs 12 hours; settings: 2 µM
[8] = The drug is tested on Clostridium scindens strain: ATCC35704 for biotransformation. The drug concentrations were measured before and after a 12-h incubation by liquid-chromatography-coupled mass spectrometry (LC–MS); settings: 2 µM
[9] = The drug is tested on Ruminococcus lactaris strain: ATCC29176 for biotransformation. The drug concentrations were measured before and after a 12-h incubation by liquid-chromatography-coupled mass spectrometry (LC–MS); settings: 2 µM
[10] = enterocloster bolteae, 12 h, 2 µM
Description: The drug is tested on Clostridium bolteae strain: ATCCBAA-613 for biotransformation. The drug concentrations were measured before and after a 12-h incubation by liquid-chromatography-coupled mass spectrometry (LC–MS)

[11] = The drug is tested on Clostridium ramosum strain: DSM1402 for biotransformation. The drug concentrations were measured before and after a 12-h incubation by liquid-chromatography-coupled mass spectrometry (LC–MS); settings: thomasclavelia ramosa, 2 µM
[12] = The drug is tested on Enterococcus faecalis strain: V583 for biotransformation. The drug concentrations were measured before and after a 12-h incubation by liquid-chromatography-coupled mass spectrometry (LC–MS); settings: 2 µM
[13] = bacteroides thetaiotaomicron, 12 h, 2 µM
Description: The drug is tested on Bacteroides thetaiotaomicron strain: 3731 for biotransformation. The drug concentrations were measured before and after a 12-h incubation by liquid-chromatography-coupled mass spectrometry (LC–MS)

[14] = The drug is tested on Collinsella aerofaciens strain: ATCC25986 for biotransformation. The drug concentrations were measured before and after a 12-h incubation by liquid-chromatography-coupled mass spectrometry (LC–MS); settings: 2 µM
[15] = The drug is tested on Providencia stuartii strain: ATCC25827 for biotransformation. The drug concentrations were measured before and after a 12-h incubation by liquid-chromatography-coupled mass spectrometry (LC–MS); settings: 2 µM
[16] = The drug is tested on Bacteroides fragilis strain: ATCC43859 for biotransformation. The drug concentrations were measured before and after a 12-h incubation by liquid-chromatography-coupled mass spectrometry (LC–MS); settings: 2 µM
[17] = The drug is tested on Escherichia coli strain: BW25113 for biotransformation. The drug concentrations were measured before and after a 12-h incubation by liquid-chromatography-coupled mass spectrometry (LC–MS); settings: 2 µM
[18] = The drug is tested on Parabacteroides merdae strain: ATCC43184 for biotransformation. The drug concentrations were measured before and after a 12-h incubation by liquid-chromatography-coupled mass spectrometry (LC–MS); settings: 2 µM
[19] = parabacteroides johnsonii, 12 h, 2 µM
Description: The drug is tested on Parabacteroides johnsonii strain: DSM18315 for biotransformation. The drug concentrations were measured before and after a 12-h incubation by liquid-chromatography-coupled mass spectrometry (LC–MS)

[20] = The drug is tested on Bacteroides coprophilus strain: DSM18228 for biotransformation. The drug concentrations were measured before and after a 12-h incubation by liquid-chromatography-coupled mass spectrometry (LC–MS); settings: 2 µM

| SMILES | Bacterial Biotransformation [1] | Bacterial Biotransformation [2] | Bacterial Biotransformation [3] | Bacterial Biotransformation [4] | Bacterial Biotransformation [5] | Bacterial Biotransformation [6] | Bacterial Biotransformation [7] | Bacterial Biotransformation [8] | Bacterial Biotransformation [9] | Bacterial Biotransformation [10] | Bacterial Biotransformation [11] | Bacterial Biotransformation [12] | Bacterial Biotransformation [13] | Bacterial Biotransformation [14] | Bacterial Biotransformation [15] | Bacterial Biotransformation [16] | Bacterial Biotransformation [17] | Bacterial Biotransformation [18] | Bacterial Biotransformation [19] | Bacterial Biotransformation [20] |
| --- | --- | --- | --- | --- | --- | --- | --- | --- | --- | --- | --- | --- | --- | --- | --- | --- | --- | --- | --- | --- |
| CCN(CC)CCOC(=O)C(Cc1cccc2ccccc12)CC1CCCO1.O=C(O)C(=O)O (stereo not given) [NAFRONYL OXALATE] | Compound NOT metabolized | Compound metabolized | Compound NOT metabolized | Compound NOT metabolized | Compound NOT metabolized | Compound NOT metabolized | Compound NOT metabolized | Compound NOT metabolized | Compound NOT metabolized | Compound NOT metabolized | Compound NOT metabolized | Compound NOT metabolized | Compound NOT metabolized | Compound NOT metabolized | Compound NOT metabolized | Compound NOT metabolized | – | – | – | – |
| CC(=O)CCCCn1c(=O)c2c(ncn2C)n(C)c1=O [PENTOXIFYLLINE] | Compound NOT metabolized | Compound NOT metabolized | Compound NOT metabolized | Compound NOT metabolized | Compound NOT metabolized | Compound NOT metabolized | Compound NOT metabolized | – | Compound NOT metabolized | – | – | Compound NOT metabolized | Compound NOT metabolized | Compound NOT metabolized | Compound NOT metabolized | Compound NOT metabolized | Compound NOT metabolized | Compound NOT metabolized | Compound NOT metabolized | Compound NOT metabolized |
| CCN(CC)CCOC(=O)C1(C2CCCCC2)CCCCC1 [DICYCLOMINE] | Compound NOT metabolized | Compound NOT metabolized | Compound NOT metabolized | Compound NOT metabolized | Compound NOT metabolized | Compound NOT metabolized | – | – | Compound NOT metabolized | Compound NOT metabolized | Compound NOT metabolized | Compound NOT metabolized | Compound NOT metabolized | Compound NOT metabolized | – | Compound NOT metabolized | – | – | – | Compound NOT metabolized |
| N#Cc1ccc(C(c2ccc(C#N)cc2)n2cncn2)cc1 [LETROZOLE] | Compound NOT metabolized | Compound NOT metabolized | Compound NOT metabolized | Compound NOT metabolized | Compound NOT metabolized | Compound NOT metabolized | Compound NOT metabolized | Compound NOT metabolized | Compound NOT metabolized | Compound NOT metabolized | – | Compound NOT metabolized | Compound NOT metabolized | Compound NOT metabolized | Compound NOT metabolized | Compound NOT metabolized | Compound NOT metabolized | Compound NOT metabolized | Compound NOT metabolized | Compound NOT metabolized |
| CN1CCC(OC(c2ccccc2)c2ccccc2)CC1 | Compound NOT metabolized | Compound NOT metabolized | Compound NOT metabolized | Compound NOT metabolized | Compound NOT metabolized | Compound NOT metabolized | Compound NOT metabolized | Compound NOT metabolized | Compound NOT metabolized | – | – | Compound NOT metabolized | Compound NOT metabolized | Compound NOT metabolized | Compound NOT metabolized | Compound NOT metabolized | Compound NOT metabolized | Compound NOT metabolized | Compound NOT metabolized | Compound NOT metabolized |
| Cc1cc2c(cc1S(N)(=O)=O)S(=O)(=O)CCC2 | Compound NOT metabolized | Compound NOT metabolized | Compound NOT metabolized | Compound NOT metabolized | Compound NOT metabolized | Compound NOT metabolized | Compound NOT metabolized | Compound NOT metabolized | Compound NOT metabolized | Compound NOT metabolized | – | – | Compound NOT metabolized | Compound NOT metabolized | Compound NOT metabolized | Compound NOT metabolized | Compound NOT metabolized | Compound NOT metabolized | Compound NOT metabolized | Compound NOT metabolized |
| CN(C(=O)CN(CCO)CC(=O)N(C)C(C)(C)Cc1ccccc1)C(C)(C)Cc1ccccc1 [OXETHAZAINE] | Compound NOT metabolized | – | Compound NOT metabolized | Compound NOT metabolized | Compound NOT metabolized | Compound NOT metabolized | Compound NOT metabolized | Compound NOT metabolized | Compound NOT metabolized | – | Compound NOT metabolized | Compound NOT metabolized | Compound NOT metabolized | Compound NOT metabolized | Compound NOT metabolized | Compound NOT metabolized | – | Compound NOT metabolized | Compound NOT metabolized | Compound NOT metabolized |
| COc1ccc([C@@H]2Sc3ccccc3N(CCN(C)C)C(=O)[C@@H]2OC(C)=O)cc1 [DILTIAZEM] | Compound metabolized | Compound metabolized | Compound NOT metabolized | Compound metabolized | Compound NOT metabolized | Compound NOT metabolized | Compound NOT metabolized | Compound NOT metabolized | Compound metabolized | Compound NOT metabolized | – | Compound NOT metabolized | Compound metabolized | Compound metabolized | – | Compound NOT metabolized | Compound NOT metabolized | Compound metabolized | Compound metabolized | Compound metabolized |
| CC(=O)OCC(=O)[C@@]1(OC(C)=O)[C@@H](C)C[C@H]2[C@@H]3C[C@H](F)C4=CC(=O)C=C[C@]4(C)[C@@]3(F)[C@@H](O)C[C@@]21C [DIFLORASONE DIACETATE] | Compound NOT metabolized | Compound metabolized | Compound metabolized | Compound metabolized | Compound metabolized | Compound NOT metabolized | Compound NOT metabolized | Compound NOT metabolized | Compound NOT metabolized | Compound metabolized | – | Compound NOT metabolized | Compound metabolized | Compound metabolized | – | Compound metabolized | Compound metabolized | Compound metabolized | Compound metabolized | Compound NOT metabolized |
